Measurements taken from a melting point compilation (Tetko et al.; mined from patent text by program, amines drawn as free bases though some values may be those of a salt).

SMILES | melting point [°C]
O=C(O)C(=NO)c1cccs1 | 132
CC1(C)CCCC(C)(C)N1CCO | 93 to 94
COc1cc(NC(=O)OC(C)(C)C)c(N)cc1C#Cc1ccccc1 | 158
CC(C)(C)OC(=O)NCC(=O)c1ccc(OCc2ccccc2)cc1 | 75 to 76
CCCCC(=O)Nc1cscc1N | 110
CCCC(=NOCC)C1=C(O)CC(c2c(C)c3c(c(C)c2Cl)CC(C)(C)C3)CC1=O (stereo not drawn) | 93 to 94
CCCCN1C(=O)CC(c2cc(C(C)(C)C)c(O)c(C(C)(C)C)c2)C1=O (stereo not drawn) | 109 to 112
COC(=O)c1cc(CCC2CNc3nc(NC(=O)C(C)(C)C)nc(O)c3C2)cn1[Si](C(C)C)(C(C)C)C(C)C (stereo not drawn) | 202 to 204
CN(C(N)=O)c1ccc(C(O)(C(F)(F)F)C(F)(F)F)cc1 | 181 to 184
CCOCn1c(C(N)=O)c(OC(C)C)c2cc(OC)ccc21 | 110 to 112
COc1cc2cc(N(C)C)sc2cc1OCc1ccccc1 | 140 to 142
O=C(O)c1cc(OCCCOc2ccc(O)cc2)cc(OCCCOc2ccc(O)cc2)c1 | 160 to 162
COC(=O)C1CC(Oc2ccc(N)cc2)CN1C(=O)C1(C)CCc2c(C)c(O)c(C)c(C)c2O1 (stereo not drawn) | 110 to 112
CC(C)(C)OC(=O)N1CCC[C@H]1C(=O)N1CCN(C(=O)c2ccc(C#N)cc2)CC1 | 50
O=C1CC2CCC(=O)N2c2cc(O)cc(O)c21 (stereo not drawn) | 254 to 256
CCCCC(CC)(C(=O)O)C(=O)O | 161 to 170
CCCCNC(=O)OC1c2cccnc2C(=O)N1c1ccc2ccc(Cl)nc2n1 (stereo not drawn) | 215
CCn1cc(C(=O)O)c(=O)c2cc(F)c(N3CC(C)(N)C3)cc21 | 280 to 283
c1ccc2c(c1)CNc1ccccc1S2 | 145 to 148
CCOC(=O)C(Cl)=Cc1cccc([N+](=O)[O-])c1 | 75
O=C1c2ccccc2CS(=O)(=O)N1CCC(c1ccccc1)N1CCOCC1 (stereo not drawn) | 130
CCCCCCCCCCCCS(=O)(=O)NN(C(=O)c1ccccc1)c1cc(Cl)c(C)cc1O | 124 to 125
CCCCCCCCc1ccc(OC2=CC(=O)OC2O)cc1 (stereo not drawn) | 59 to 61
Cn1c(C(F)(F)F)cc(=O)n(-c2ccc3snc(C(C)(C)C(=O)NS(C)(=O)=O)c3c2)c1=O | 264 to 265
CN1c2ccc(F)cc2C(c2ccccc2)=NCC1CCl (stereo not drawn) | 173 to 188
CNC(=O)c1c(I)c(C(=O)O)c(I)c(C(=O)NC)c1I | > 300
CN1Cc2c(C(=O)OC(C)(C)C)ncn2-c2ccccc2C1=O | 216 to 217

SMILES | melting point [°C]
CCN1C(=O)C(C)(C)C(=O)N(C)c2cc(CN(CCn3cc(C)c4occc4c3=O)Cc3cncn3C)ccc21 | 100 to 105
O=C1OCC(CNC2CCCCC2)C1(c1ccccc1)c1ccccc1 (stereo not drawn) | 129 to 131
Oc1ccc2c3c1OC1C(O)CCC4(F)C(C2)N(CC2CCC2)CCC314 (stereo not drawn) | 236 to 239
CC1(C)C=C(O)C(=O)C(C)(C)C1 | 85 to 86
O=C(CNCc1ccccc1)CP(=O)(O)C(Cl)(Cl)Cl | 194 to 195
CNC(=O)C(S(=O)(=O)CCCl)S(=O)(=O)CCCl | 173 to 175
COc1ccc(C2=NN(C3CCN(C(C)=O)CC3)C(=O)CC2C)cc1OC (stereo not drawn) | 149 to 152
COC(=O)C1CCC2C3CCC4CC=CCC4(C)C3C(=O)CC12C (stereo not drawn) | 169 to 175
CN(C)CCNC(=O)N1CCN(c2ccc([N+](=O)[O-])cc2)CC1 | 115 to 120
Cc1c2c(c(C)c3c1OC(C)(CI)C3)N(C=O)C(C)(C)C2 (stereo not drawn) | 124 to 126
CC(C)(C)c1cc(SCc2cccc(C#N)c2)cc(C(C)(C)C)c1O | 61 to 63
CCCN(CCC)C1Cc2cc3c(cc2C1)C(=O)N(c1ccc(C#N)cc1)C3=O | 250 to 251
CC=Cc1cnc(C2=NC(C)(C(C)C)C(=O)N2)c(C(=O)O)c1 (stereo not drawn) | 175 to 176
COc1ccc(C(C#Cc2ccccc2)CC(N)=O)cc1OC1CCCC1 (racemic) | 142 to 144
CCOC(=O)c1cnn2c1nc(N(CC)CC)c1cnc3c(cnn3CC)c12 | 170 to 172
CCCCCCSC[C@H](N[C@@H](C)C(=O)N1CCC[C@H]1C(=O)O)C(=O)O | 109 to 112
CCCC(=O)Nc1cc(C(F)(F)F)ccc1SCC#N | 88.5 to 89.5
Nc1nc2cc3nc(NC(=O)CCl)sc3cc2s1 | 300
O=C(Nc1ccccc1)Nc1onc2c1CCC2 | 202
O=c1cc2c(n[nH]1)-c1ccc(O)cc1CC2 | 300
Cc1sc2c(c1C(=O)c1ccccc1)CCC2C(N)=O (stereo not drawn) | 165 to 168
COc1ccc2ccc(N3C(=O)c4ccccc4C3OCC(=O)NC3CCCCC3)nc2n1 (stereo not drawn) | 175
CC(C)N1Cc2cccc(F)c2N(CCN2CC=C(c3c[nH]c4cc(F)ccc34)CC2)S1(=O)=O | 199 to 201
C=C(C)Cc1c(C)c(NC(C)=O)c(C)c(C)c1O | 209 to 210
CN1CCN(C(=O)CN2C(=O)C(NC(=O)OCc3ccccc3)N=C(c3ccccc3)c3ccccc32)CC1 (stereo not drawn) | 200 to 202
NC(=O)c1cn(C2CCCC2)nc1N | 179 to 181
O=C(NCCCc1ccncc1)N(CCC12CC3CC(CC(C3)C1)C2)Cc1ccccc1 | 130 to 135

The next lines start with the values.

melting point [°C] | SMILES
219 | CC1(C)Oc2ccc(Br)cc2C(n2ccccc2=O)=C1CN(O)C(N)=S
278 to 283 | CN1C(=O)Cn2cc(C(=O)NCc3ccc(Cl)cc3)c(=O)c3cc(I)cc1c32
80.5 to 81.5 | CCN(Cc1ccc(Cl)cc1Cl)C(=O)n1oc(C)c(Cl)c1=O
56 to 57 | CC(=O)COc1ccc(Oc2ccc(F)cc2)cc1
227 to 230 | NC1=NS(=O)N=C1NCCCN1c2ccccc2CCc2ccccc21 (stereo not drawn)
276 to 277 | COc1cccc(-c2cn(-c3ccc(C(=O)O)cc3)nn2)c1
203 to 206 | Cc1cc(C)nc(NC(=O)NS(=O)(=O)c2cccc3c2OC(C)(C)C3)n1
192 to 193 | Cc1ccc(-c2ccc3c(c2)C=C(C(=O)Nc2ccc(CN4CCCCC4)cc2)CCC3)cc1
252 to 253 | Cc1nc2c(s1)-c1nc(Nc3ccc(Cl)nc3)ncc1CC2
175 | c1ccc(Oc2ccc(Nc3ncnc4cnc(N5CCCCC5)nc34)cc2)cc1
126 to 128 | CCNC(=O)c1cc(N)ccc1Oc1cncc(Cl)c1
124 to 125 | CN(C)CCNC(=O)Cn1c(-c2cccc(Cl)c2)nc2cccnc21
55 to 57 | COC(=O)C[C@H]1C[C@@H](CCc2c(-c3ccc(F)cc3)c(-c3ccc(F)cc3)cn2C(C)C)OC(C)(C)O1
166 to 168 | COc1cccc(CNC(=O)COc2ccn3nc(-c4ccccc4)c(-c4ccc(=O)n(C(C)C)n4)c3c2)c1
183 to 185 | N#Cc1cc(NC(=O)c2ccc3ccccc3c2)ccc1N1CCC(O)CC1
335 to 345 | O=C1NC(=O)c2c1cc(-c1ccccc1)c1[nH]c3ccc(O)cc3c21
99 to 101 | CCOC(=O)Cn1ncc(-c2ccccc2)c1-c1ccc(N(C)C)cc1
190 | Cc1[nH]c(=S)n(Nc2cccc(Br)c2)c1-c1ccccc1
124 to 125 | CCOC(=O)Cc1nc(-c2ccc(Cl)cc2)oc1-c1ccoc1
175 | CCOC(=O)C(=O)Nc1ccc2cc(Br)ccc2c1[N+](=O)[O-]
175 to 177 | Cc1ccc(C(O)(Cc2nnnn2C)c2ccc(C)cc2C)c(C)c1
106 to 109 | O=C(c1ccc(Cl)cc1)c1ccc[nH]1

melting point [°C] | SMILES
126 to 127 | CCN(CC)CCCCC1CCN(C(=O)N2c3cc(Cl)ccc3C(=O)Nc3cccnc32)CC1
79 to 81 | CCOC(=O)C=CC(=O)N(CC(C)(C)C)c1sc(Cl)cc1C(=O)c1ccccc1Cl
144 to 148 | CCc1noc(C)c1-c1[nH]c2ccccc2c1C(=O)CCC(=O)N(C)C
129 to 131 | Cc1nc2cc(Cl)ccc2c2ccccc12
183 to 184 | O=C(NCCN1C(=O)C2(COc3cc4c(cc32)OCO4)c2ccccc21)c1ccccc1OC(F)(F)F (stereo not drawn)
> 250 | CC(=O)Nc1nc2ccc(S(=O)(=O)n3c(CCC(=O)O)cc4cc(Cl)ccc43)cc2s1
322 to 328 | C[C@H](NC(=O)c1c[nH]c2ncc(-c3nn(C)c4cc(Cl)ccc34)nc12)C(C)(C)C#N
164 to 166 | Cc1c(O)cc(O)c(C)c1C(=O)OCc1ccc([N+](=O)[O-])cc1
88 to 90 | Cc1cccc(-c2n[nH]cc2-c2ccc(F)c(-c3ccc(N4CCOCC4)cn3)c2)n1
111 to 113 | Cn1nc(-c2c(F)cccc2Cl)nc1-c1ccc(CO)c(Cl)c1
140 to 141 | COc1ccc(C2CCc3cc(CC(=O)O)cc(Cl)c3N2)cc1 (stereo not drawn)
118 | COc1cc(-c2nc3ccc(OCCCCl)cc3n2Cc2ccccc2)cc(OC)c1OC
200 to 202 | COC(=O)C1=C(C)NC(C)=C(c2nc(CCl)no2)C1c1cccc([N+](=O)[O-])c1 (stereo not drawn)
123 to 124 | COc1ccc(C(=O)NCCc2ccccc2)cc1OC
63 to 64 | CCc1nc2c(-c3ccc(Cl)cc3Cl)nnc(C)c2n1C(CC)CC
119 to 123 | O=C1CCc2c(Oc3ccc([N+](=O)[O-])cn3)cccc21
241 | CCOc1ccc2c(c1)n(-c1ccccn1)c(=O)n2S(=O)(=O)c1ccc(C(=O)O)cc1OC
123 to 124 | COc1ccc(Cc2nc3cc(Cl)cc(Br)c3o2)cc1OC
110 to 115 | COc1cc(C(C)C)ccc1C1(O)C(=O)c2c(NC(C)=O)ccc([N+](=O)[O-])c2C1=O (stereo not drawn)
216 to 217 | Cc1c(-c2ccc3c(c2)NC(=O)C(C)O3)nc2ccccn12 (stereo not drawn)
150 to 152 | Cc1ccc(NC(=O)c2ccc(C(=O)Nc3ccccc3N)nc2)cc1Nc1nccc(-c2cccnc2)n1
204 to 208 | CCCCn1nc(C)c(C(N)=O)c1Cc1ccc(-c2ccccc2-c2nnn[nH]2)cc1
